Laboratory results reported in the NIST ThermoML archive (doi:10.1021/je500804j).

Assay: mn = molality of the nth substance listed, in mol/kg
Conditions: 101 kPa, Liquid, Alternating current cell with electrodes

CCCCCCCC[N+](C)(C)CCCCCC[N+](C)(C)CCCCCCCC.[Br-].[Br-] + O
Conditions	electrical conductivity [S/m]
288.15 K, m1 = 0.00378	0.05571
288.15 K, m1 = 0.00747	0.1028
288.15 K, m1 = 0.01106	0.1443
288.15 K, m1 = 0.01457	0.1827
288.15 K, m1 = 0.01799	0.2183
288.15 K, m1 = 0.02133	0.252
288.15 K, m1 = 0.02458	0.2838
288.15 K, m1 = 0.02776	0.3124
288.15 K, m1 = 0.03087	0.3407
288.15 K, m1 = 0.0339	0.3668
288.15 K, m1 = 0.03687	0.3917
288.15 K, m1 = 0.03977	0.4158
288.15 K, m1 = 0.0426	0.4383
288.15 K, m1 = 0.04537	0.4604
288.15 K, m1 = 0.04808	0.4812
288.15 K, m1 = 0.05073	0.5011
288.15 K, m1 = 0.05333	0.521
288.15 K, m1 = 0.05587	0.5391
288.15 K, m1 = 0.05835	0.555
288.15 K, m1 = 0.06079	0.5717
288.15 K, m1 = 0.06318	0.5855
288.15 K, m1 = 0.06551	0.6042
288.15 K, m1 = 0.0678	0.6203
288.15 K, m1 = 0.07005	0.6375
288.15 K, m1 = 0.07225	0.653
288.15 K, m1 = 0.07441	0.6677
288.15 K, m1 = 0.07652	0.6826
288.15 K, m1 = 0.0786	0.6955
288.15 K, m1 = 0.08064	0.7092
288.15 K, m1 = 0.08264	0.7199
288.15 K, m1 = 0.0846	0.7323
288.15 K, m1 = 0.08652	0.7423
288.15 K, m1 = 0.08841	0.7524
288.15 K, m1 = 0.09027	0.7618
288.15 K, m1 = 0.09209	0.7705
288.15 K, m1 = 0.09388	0.7794
288.15 K, m1 = 0.09564	0.7883
288.15 K, m1 = 0.09737	0.7958
288.15 K, m1 = 0.09907	0.8039
288.15 K, m1 = 0.1007	0.812
288.15 K, m1 = 0.1024	0.817
288.15 K, m1 = 0.104	0.8214
288.15 K, m1 = 0.1056	0.8271
288.15 K, m1 = 0.1071	0.8323
288.15 K, m1 = 0.1087	0.836
288.15 K, m1 = 0.1102	0.8402
288.15 K, m1 = 0.1117	0.8452
288.15 K, m1 = 0.1131	0.8492
288.15 K, m1 = 0.1146	0.8528
288.15 K, m1 = 0.116	0.8565
293.15 K, m1 = 0.00416	0.07018
293.15 K, m1 = 0.00821	0.09599
293.15 K, m1 = 0.01215	0.154
293.15 K, m1 = 0.01598	0.2062
293.15 K, m1 = 0.01972	0.2543
293.15 K, m1 = 0.02336	0.2987
293.15 K, m1 = 0.02691	0.3399
293.15 K, m1 = 0.03037	0.3785
293.15 K, m1 = 0.03374	0.415
293.15 K, m1 = 0.03704	0.4499
293.15 K, m1 = 0.04025	0.4818
293.15 K, m1 = 0.04339	0.5127
293.15 K, m1 = 0.04645	0.5415
293.15 K, m1 = 0.04944	0.5687
293.15 K, m1 = 0.05237	0.5953
293.15 K, m1 = 0.05523	0.6199
293.15 K, m1 = 0.05802	0.6436
293.15 K, m1 = 0.06075	0.6658
293.15 K, m1 = 0.06342	0.6867
293.15 K, m1 = 0.06604	0.707
293.15 K, m1 = 0.06859	0.7264
293.15 K, m1 = 0.0711	0.7446
293.15 K, m1 = 0.07355	0.762
293.15 K, m1 = 0.07595	0.7782
293.15 K, m1 = 0.0783	0.7934
293.15 K, m1 = 0.0806	0.8076
293.15 K, m1 = 0.08285	0.8213
293.15 K, m1 = 0.08507	0.8335
293.15 K, m1 = 0.08723	0.8458
293.15 K, m1 = 0.08936	0.8569
293.15 K, m1 = 0.09144	0.8677
293.15 K, m1 = 0.09348	0.8777
293.15 K, m1 = 0.09549	0.8873
293.15 K, m1 = 0.09745	0.8958
293.15 K, m1 = 0.09938	0.9045
293.15 K, m1 = 0.1013	0.9127
293.15 K, m1 = 0.1031	0.9206
293.15 K, m1 = 0.105	0.9279
293.15 K, m1 = 0.1068	0.9349
293.15 K, m1 = 0.1085	0.9413
293.15 K, m1 = 0.1103	0.9468
293.15 K, m1 = 0.1119	0.9533
293.15 K, m1 = 0.1136	0.9594
293.15 K, m1 = 0.1153	0.9653
293.15 K, m1 = 0.1169	0.9709
293.15 K, m1 = 0.1185	0.9766
293.15 K, m1 = 0.12	0.9819
293.15 K, m1 = 0.1216	0.9868
293.15 K, m1 = 0.1231	0.9919
293.15 K, m1 = 0.1245	0.9968
298.15 K, m1 = 0.00419	0.07905
298.15 K, m1 = 0.00827	0.1464
298.15 K, m1 = 0.01224	0.2076
298.15 K, m1 = 0.0161	0.2647
298.15 K, m1 = 0.01987	0.3161
298.15 K, m1 = 0.02353	0.3644
298.15 K, m1 = 0.02711	0.4098
298.15 K, m1 = 0.03059	0.4515
298.15 K, m1 = 0.03399	0.4914
298.15 K, m1 = 0.0373	0.5292
298.15 K, m1 = 0.04053	0.5645
298.15 K, m1 = 0.04369	0.5979
298.15 K, m1 = 0.04677	0.6299
298.15 K, m1 = 0.04978	0.6602
298.15 K, m1 = 0.05272	0.6887
298.15 K, m1 = 0.05559	0.7156
298.15 K, m1 = 0.0584	0.7419
298.15 K, m1 = 0.06114	0.7666
298.15 K, m1 = 0.06383	0.7898
298.15 K, m1 = 0.06645	0.812
298.15 K, m1 = 0.06902	0.833
298.15 K, m1 = 0.07154	0.8526
298.15 K, m1 = 0.074	0.8713
298.15 K, m1 = 0.07641	0.8887
298.15 K, m1 = 0.07877	0.9051
298.15 K, m1 = 0.08108	0.9203
298.15 K, m1 = 0.08334	0.9348
298.15 K, m1 = 0.08556	0.9485
298.15 K, m1 = 0.08773	0.9616
298.15 K, m1 = 0.08987	0.9739
298.15 K, m1 = 0.09196	0.9852
298.15 K, m1 = 0.09401	0.9959
298.15 K, m1 = 0.09602	1.006
298.15 K, m1 = 0.09799	1.016
298.15 K, m1 = 0.09992	1.025
298.15 K, m1 = 0.1018	1.033
298.15 K, m1 = 0.1037	1.042
298.15 K, m1 = 0.1055	1.05
298.15 K, m1 = 0.1073	1.058
298.15 K, m1 = 0.1091	1.066
298.15 K, m1 = 0.1108	1.073
298.15 K, m1 = 0.1125	1.08
298.15 K, m1 = 0.1142	1.087
298.15 K, m1 = 0.1158	1.094
298.15 K, m1 = 0.1174	1.1
298.15 K, m1 = 0.119	1.107
298.15 K, m1 = 0.1206	1.112
298.15 K, m1 = 0.1221	1.118
298.15 K, m1 = 0.1236	1.124
298.15 K, m1 = 0.1251	1.13
303.15 K, m1 = 0.00379	0.0878
303.15 K, m1 = 0.00748	0.1271
303.15 K, m1 = 0.01108	0.1968
303.15 K, m1 = 0.01459	0.2594
303.15 K, m1 = 0.01801	0.3174
303.15 K, m1 = 0.02135	0.3714
303.15 K, m1 = 0.02461	0.4209
303.15 K, m1 = 0.02779	0.4681
303.15 K, m1 = 0.0309	0.5124
303.15 K, m1 = 0.03394	0.5542
303.15 K, m1 = 0.03691	0.5939
303.15 K, m1 = 0.03981	0.6314
303.15 K, m1 = 0.04264	0.6668
303.15 K, m1 = 0.04542	0.7005
303.15 K, m1 = 0.04813	0.7326
303.15 K, m1 = 0.05078	0.7638
303.15 K, m1 = 0.05338	0.7917
303.15 K, m1 = 0.05592	0.8194
303.15 K, m1 = 0.05841	0.8457
303.15 K, m1 = 0.06085	0.8704
303.15 K, m1 = 0.06324	0.8926
303.15 K, m1 = 0.06558	0.9126
303.15 K, m1 = 0.06787	0.9342
303.15 K, m1 = 0.07011	0.9547
303.15 K, m1 = 0.07232	0.9738
303.15 K, m1 = 0.07448	0.9921
303.15 K, m1 = 0.07659	1.01
303.15 K, m1 = 0.07867	1.026
303.15 K, m1 = 0.08071	1.04
303.15 K, m1 = 0.08271	1.055
303.15 K, m1 = 0.08467	1.069
303.15 K, m1 = 0.0866	1.082
303.15 K, m1 = 0.08849	1.094
303.15 K, m1 = 0.09034	1.107
303.15 K, m1 = 0.09217	1.118
303.15 K, m1 = 0.09396	1.129
303.15 K, m1 = 0.09572	1.139
303.15 K, m1 = 0.09745	1.148
303.15 K, m1 = 0.09915	1.158
303.15 K, m1 = 0.1008	1.168
303.15 K, m1 = 0.1025	1.175
303.15 K, m1 = 0.1041	1.183
303.15 K, m1 = 0.1057	1.191
303.15 K, m1 = 0.1072	1.198
303.15 K, m1 = 0.1087	1.206
303.15 K, m1 = 0.1103	1.215
303.15 K, m1 = 0.1118	1.22
303.15 K, m1 = 0.1132	1.228
